From ChEMBL document CHEMBL1777763, “Discovery of a nortropanol derivative as a potent and orally active GPR119 agonist for type 2 diabetes” (Bioorg Med Chem Lett, 2011) come the findings set out here.

The source made the active and inactive calls. The rule behind the calls is not given here.

Data set [1] relates to Mus musculus. As to the kind of experiment: Antidiabetic activity in overnight fasted mouse model assessed as blood glucose level at 3 mg/kg, po followed by 30 mins after administered 3 g/kg, po glucose by oral glucose tolerance test (reference value: 100 %). Format: functional.
In data set [2] the test system is Mus musculus. Description: Antidiabetic activity in laen mouse model assessed as reduction in blood glucose level at 30 mg/kg, po up to 60 mins by oral glucose tolerance test. Format: functional. Particulars: 1 h.
Data set [3] concerns the target T1, Glucose-dependent insulinotropic receptor (Mus musculus) (UniProt Q7TQP3).
T1 sequence (whole entry): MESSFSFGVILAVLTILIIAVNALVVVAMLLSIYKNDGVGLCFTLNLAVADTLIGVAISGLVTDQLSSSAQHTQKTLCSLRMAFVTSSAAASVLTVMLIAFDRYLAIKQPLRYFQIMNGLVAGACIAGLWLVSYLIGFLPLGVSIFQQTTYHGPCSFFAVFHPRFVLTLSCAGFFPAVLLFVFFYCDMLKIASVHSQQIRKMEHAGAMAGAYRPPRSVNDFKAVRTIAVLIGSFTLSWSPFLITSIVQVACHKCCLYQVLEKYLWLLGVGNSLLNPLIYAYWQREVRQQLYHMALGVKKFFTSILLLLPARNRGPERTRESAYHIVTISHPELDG
Description: Agonist activity at mouse GPR119 expressed in HEK293 cells assessed as maximal stimulation of cMAP level by cell-based cAMP assay relative to 21. The data set is classed as functional.

In data set [4] the target is T2, Glucose-dependent insulinotropic receptor (Mus musculus, UniProt Q7TQP3).
T2 sequence (Q7TQP3 whole entry): T1 sequence (whole entry)
As to the kind of experiment: Agonist activity at mouse GPR119 expressed in HEK293 cells assessed as stimulation of cMAP level by cell-based cAMP assay. The data set is classed as functional.

A short description of data set [5]: Plasma concentration in lean mouse at 30 mg/kg, po after 60 mins. Format: ADME, organism-based. Also on record: dose 30 mg/kg, route oral.
The nature of data set [6]: Plasma concentration in mouse at 3 mg/kg, po after 1 hr. Format: ADME, organism-based. Also on record: dose 3 mg/kg, route oral.
Data set [7] has as its system Rattus norvegicus. As to the kind of experiment: AUC (0 to 6 hrs) in rat at 10 mg/kg, po. Also on record: time < 6 hr, dose 10 mg/kg, route oral. Format: ADME, organism-based, Plasma. Particulars: in vivo.
The next data set concerns the target Cytochrome P450 3A4 (Homo sapiens, UniProt P08684). As to the kind of experiment: Inhibition of CYP3A4. The data set is classed as ADME.
For a further data set, the system named is Rhesus monkey. As to the kind of experiment: AUC (0 to 24 hrs) in monkey at 3 mg/kg, po. Format: ADME, organism-based, Macaca mulatta, Plasma. Particulars: in vivo. Also on record: time < 24 hr, dose 3 mg/kg, route oral.
Data set [8] is described as follows: Plasma concentration in lean mouse at 3 mg/kg, po after 60 mins. The data set is classed as ADME, organism-based. Also on record: dose 3 mg/kg, route oral.
The next data set deals with hERG (KCNH2) (Homo sapiens, UniProt Q12809). As to the kind of experiment: Inhibition of human ERG at 10 uM.
Chain of hERG (KCNH2) (Q12809 whole entry): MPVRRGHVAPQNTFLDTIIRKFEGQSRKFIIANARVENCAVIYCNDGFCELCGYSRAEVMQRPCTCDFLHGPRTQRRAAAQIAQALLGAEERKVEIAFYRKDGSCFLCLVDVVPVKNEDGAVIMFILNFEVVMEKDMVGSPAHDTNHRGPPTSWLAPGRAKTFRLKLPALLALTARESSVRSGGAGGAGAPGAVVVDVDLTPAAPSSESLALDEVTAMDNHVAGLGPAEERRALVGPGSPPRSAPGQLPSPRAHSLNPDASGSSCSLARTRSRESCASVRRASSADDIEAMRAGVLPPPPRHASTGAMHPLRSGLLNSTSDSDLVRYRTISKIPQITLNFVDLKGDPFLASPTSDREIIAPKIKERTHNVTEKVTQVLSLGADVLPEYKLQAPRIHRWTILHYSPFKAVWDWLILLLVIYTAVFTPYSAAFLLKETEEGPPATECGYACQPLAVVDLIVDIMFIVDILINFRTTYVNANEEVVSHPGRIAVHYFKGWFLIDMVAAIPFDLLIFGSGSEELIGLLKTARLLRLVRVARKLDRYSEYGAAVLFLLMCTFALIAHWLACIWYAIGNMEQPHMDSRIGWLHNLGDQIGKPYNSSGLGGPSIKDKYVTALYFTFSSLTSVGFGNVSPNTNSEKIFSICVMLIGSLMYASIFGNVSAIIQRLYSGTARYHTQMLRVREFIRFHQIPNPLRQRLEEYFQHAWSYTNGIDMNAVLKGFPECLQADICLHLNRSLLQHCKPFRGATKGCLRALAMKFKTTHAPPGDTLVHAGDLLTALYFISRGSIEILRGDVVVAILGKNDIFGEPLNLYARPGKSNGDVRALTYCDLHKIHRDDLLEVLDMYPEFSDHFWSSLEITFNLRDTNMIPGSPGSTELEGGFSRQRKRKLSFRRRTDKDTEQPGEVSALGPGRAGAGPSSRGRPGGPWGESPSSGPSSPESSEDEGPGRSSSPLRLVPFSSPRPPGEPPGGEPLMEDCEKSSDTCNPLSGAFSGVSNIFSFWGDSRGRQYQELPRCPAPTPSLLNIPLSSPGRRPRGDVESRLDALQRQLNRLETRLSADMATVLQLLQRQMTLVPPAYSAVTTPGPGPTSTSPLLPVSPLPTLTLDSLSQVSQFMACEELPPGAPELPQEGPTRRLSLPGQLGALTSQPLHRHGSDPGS
For data set [9], the system named is Mus musculus. As to the kind of experiment: Antidiabetic activity in laen mouse model assessed as reduction in blood glucose level at 3 mg/kg, po up to 60 mins by oral glucose tolerance test. Particulars: 1 h. The data set is classed as functional.
A short description of data set [10]: Plasma concentration in lean mouse at 10 mg/kg, po after 60 mins. Format: ADME, organism-based. Also on record: dose 10 mg/kg, route oral.
Data set [11] relates to Mus musculus. Description: Antidiabetic activity in laen mouse model assessed as reduction in blood glucose level at 10 mg/kg, po up to 60 mins by oral glucose tolerance test. The data set is classed as functional. Particulars: 1 h.
A short description of data set [12]: Cmax in monkey at 3 mg/kg, po. The data set is classed as ADME, organism-based, Macaca mulatta. Set-up: dose 3 mg/kg, route oral. Particulars: rhesus monkey, in vivo.
Data set [13] is described as follows: Tmax in monkey at 3 mg/kg, po. The data set is classed as ADME, organism-based, Macaca mulatta. Also on record: dose 3 mg/kg, route oral. Particulars: rhesus monkey, in vivo.
The test system of a further data set is Salmonella typhimurium. As to the kind of experiment: Genotoxicity in Salmonella Typhimurium by Ames test. The data set is classed as toxicity, organism-based. Particulars: salmonella enterica subsp. enterica serovar typhimurium.
A further data set concerns the target Cytochrome P450 2C9 (Homo sapiens, UniProt P11712). As to the kind of experiment: Inhibition of CYP2C9. Format: ADME.
Data set [14] deals with Rattus norvegicus. Description: Antidiabetic activity in lean anesthetized rat hyperglycemic clamp model assessed as increase in insulin level at 1 mg/kg, iv relative to control.
The next data set has as its target T3, PXR (NR1I2) (Homo sapiens, UniProt O75469).
T3 sequence (O75469 whole entry): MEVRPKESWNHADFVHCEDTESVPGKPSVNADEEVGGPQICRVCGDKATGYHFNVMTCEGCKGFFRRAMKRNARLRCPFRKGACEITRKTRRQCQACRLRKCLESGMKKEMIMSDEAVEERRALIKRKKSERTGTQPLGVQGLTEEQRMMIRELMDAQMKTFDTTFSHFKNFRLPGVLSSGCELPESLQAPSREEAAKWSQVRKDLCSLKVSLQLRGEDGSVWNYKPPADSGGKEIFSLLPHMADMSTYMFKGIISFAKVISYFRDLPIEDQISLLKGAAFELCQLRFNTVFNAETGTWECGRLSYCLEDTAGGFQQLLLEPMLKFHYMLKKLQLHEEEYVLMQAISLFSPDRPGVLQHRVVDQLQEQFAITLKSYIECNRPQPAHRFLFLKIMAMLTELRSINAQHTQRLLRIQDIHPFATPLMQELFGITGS
Description: Inhibition of human PXR transfected in HepG2 cells at 10 uM. Particulars: HepG2 cells transfected with human PXR. The data set is classed as cell-based.

Data set [15] addresses Probable G-protein coupled receptor 160 (Homo sapiens) (UniProt Q9UJ42). As to the kind of experiment: Inhibition of GPCR-1 at 10 uM.
Another data set addresses Cytochrome P450 2D6 (Homo sapiens, UniProt P10635). Description: Inhibition of CYP2D6. Format: ADME.

Chain of Cytochrome P450 2C9 (P11712 whole entry): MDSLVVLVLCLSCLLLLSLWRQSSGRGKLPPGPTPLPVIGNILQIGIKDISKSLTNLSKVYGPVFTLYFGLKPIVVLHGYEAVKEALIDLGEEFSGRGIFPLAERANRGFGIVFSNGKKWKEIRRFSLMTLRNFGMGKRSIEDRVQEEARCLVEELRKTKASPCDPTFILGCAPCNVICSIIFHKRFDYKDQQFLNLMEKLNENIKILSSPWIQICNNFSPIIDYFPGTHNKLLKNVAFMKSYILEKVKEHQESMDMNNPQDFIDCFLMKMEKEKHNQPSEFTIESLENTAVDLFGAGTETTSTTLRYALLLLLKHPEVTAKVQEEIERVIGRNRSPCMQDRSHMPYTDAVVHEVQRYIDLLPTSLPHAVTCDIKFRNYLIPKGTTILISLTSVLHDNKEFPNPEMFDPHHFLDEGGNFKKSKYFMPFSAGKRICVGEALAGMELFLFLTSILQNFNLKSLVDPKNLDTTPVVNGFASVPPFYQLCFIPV
Chain of Cytochrome P450 2D6 (P10635 whole entry): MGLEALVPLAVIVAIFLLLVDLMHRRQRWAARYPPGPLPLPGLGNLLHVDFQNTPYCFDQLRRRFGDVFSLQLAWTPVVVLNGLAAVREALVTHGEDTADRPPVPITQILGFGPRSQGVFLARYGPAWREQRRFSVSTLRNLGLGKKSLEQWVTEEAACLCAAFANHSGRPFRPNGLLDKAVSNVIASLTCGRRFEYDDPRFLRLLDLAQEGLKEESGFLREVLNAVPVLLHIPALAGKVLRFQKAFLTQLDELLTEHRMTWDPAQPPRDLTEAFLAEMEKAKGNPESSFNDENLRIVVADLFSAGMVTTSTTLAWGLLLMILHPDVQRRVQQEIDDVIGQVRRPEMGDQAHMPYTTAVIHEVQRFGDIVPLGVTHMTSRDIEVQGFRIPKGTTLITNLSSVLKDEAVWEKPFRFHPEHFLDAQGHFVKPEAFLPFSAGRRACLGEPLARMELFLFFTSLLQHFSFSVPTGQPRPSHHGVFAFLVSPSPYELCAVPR
Chain of Probable G-protein coupled receptor 160 (Homo sapiens) (Q9UJ42 whole entry): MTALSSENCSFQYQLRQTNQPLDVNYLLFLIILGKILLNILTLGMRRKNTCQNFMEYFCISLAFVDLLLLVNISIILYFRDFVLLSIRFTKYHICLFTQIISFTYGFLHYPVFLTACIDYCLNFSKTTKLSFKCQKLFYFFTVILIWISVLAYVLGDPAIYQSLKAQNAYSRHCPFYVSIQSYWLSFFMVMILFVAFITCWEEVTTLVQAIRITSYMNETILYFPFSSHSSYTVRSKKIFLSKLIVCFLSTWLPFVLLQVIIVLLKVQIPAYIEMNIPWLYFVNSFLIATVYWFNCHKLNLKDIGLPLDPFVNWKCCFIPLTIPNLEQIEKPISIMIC
Chain of Cytochrome P450 3A4 (P08684 whole entry): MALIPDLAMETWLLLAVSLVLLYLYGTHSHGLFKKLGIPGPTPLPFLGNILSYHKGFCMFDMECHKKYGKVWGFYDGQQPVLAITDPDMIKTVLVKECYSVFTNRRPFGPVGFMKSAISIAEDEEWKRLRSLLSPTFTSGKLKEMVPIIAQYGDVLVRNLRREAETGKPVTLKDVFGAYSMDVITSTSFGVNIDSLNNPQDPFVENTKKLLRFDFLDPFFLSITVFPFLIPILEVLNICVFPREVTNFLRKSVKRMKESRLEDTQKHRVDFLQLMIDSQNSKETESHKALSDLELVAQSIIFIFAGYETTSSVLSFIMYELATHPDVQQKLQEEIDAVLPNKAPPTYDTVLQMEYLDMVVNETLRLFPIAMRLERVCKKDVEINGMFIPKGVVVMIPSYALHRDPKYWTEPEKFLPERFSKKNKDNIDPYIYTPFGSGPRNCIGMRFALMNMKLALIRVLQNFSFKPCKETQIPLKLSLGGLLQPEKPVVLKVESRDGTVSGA

Turning to `CC(C)OC(=O)N1CCC(Oc2cc(Oc3ccc(S(C)(=O)=O)cc3F)ncn2)CC1`, in the data set on Mus musculus [1], the “Blood glucose (% of vehicle)” value is recorded as 78%. For the same molecule, in the data set with Mus musculus [2], the inhibition in vivo at 30 mg/kg is 47%. For the same molecule, in data set [3], the Activity was found to be 100%. Also, in data set [4], the EC50 worked out at 0.403 µM. For the same molecule, the concentration at 1 h in [5] worked out at 12.7 µM; in data set [6], 0.48 µM. The molecule further yielded an AUC with Rattus norvegicus [7] of 20700 nM·h.

`Cc1c(Nc2ccc(C#N)cc2F)ncnc1O[C@H]1CC2CC[C@@H](C1)N2S(=O)(=O)C1CC1` (single isomer, unassigned): in the data set with Mus musculus [1], the “Blood glucose (% of vehicle)” value is listed as 95%. Also, the Activity in data set [3] amounted to 84%. In addition, the EC50 in [4] amounted to 0.22 µM.

For the molecule `Cc1ncccc1Oc1ncnc(O[C@H]2CC3CC[C@@H](C2)N3C(=O)OC(C)C)c1C` (single isomer, unassigned), the “Blood glucose (% of vehicle)” value with Mus musculus [1] stood at 100%. Besides, the Activity in [3] amounted to 20%. For the same molecule, the EC50 in data set [4] was 0.055 µM. This molecule showed a concentration at 1 h in data set [6] of 0.193 µM. In the data set with Rattus norvegicus [7], the AUC amounted to 175 nM·h.

Regarding `Cc1ncccc1Oc1ncnc(O[C@H]2CC3CC[C@@H](C2)N3C(=O)OC2(C)CC2)c1C` (single isomer, unassigned), the “Blood glucose (% of vehicle)” value in the data set on Mus musculus [1] was determined as 95%. Further, in data set [3], the Activity amounted to 12%. For the same molecule, the EC50 in [4] is greater than 30 µM. Besides, the concentration at 1 h in data set [6] amounted to 0.13 µM. In addition, in the data set on Rattus norvegicus [7], the AUC was 2840 nM·h.

For the molecule `Cc1ncccc1Oc1ncnc(O[C@H]2CC3CC[C@@H](C2)N3S(=O)(=O)CC(C)C)c1C` (single isomer, unassigned), the Activity in data set [3] was 69%. Besides, the EC50 in [4] stood at 0.07 µM. In the data set on Rattus norvegicus [7], this molecule yielded an AUC of 0 nM·h.

Consider `Cc1c(Oc2ccccc2C#N)ncnc1O[C@H]1CC2CC[C@@H](C1)N2S(=O)(=O)C1CC1` (single isomer, unassigned), for which the “Blood glucose (% of vehicle)” value in the data set on Mus musculus [1] is recorded as 88%. Also, the Activity in [3] came out at 74%. Besides, the EC50 in data set [4] was 0.068 µM. This molecule had a concentration at 1 h in data set [6] of 0.29 µM. In addition, the AUC with Rattus norvegicus [7] turned out to be 461 nM·h.

Regarding `Cc1c(Nc2ccc(C#N)cc2Cl)ncnc1O[C@H]1CC2CC[C@@H](C1)N2S(=O)(=O)C1CC1` (single isomer, unassigned), the IC50 against Cytochrome P450 3A4, against Cytochrome P450 2C9 and at Cytochrome P450 2D6 was greater than 20 µM in each case. Moreover, the results for the AUC in the data set on Rhesus monkey and with Rattus norvegicus [7] were 16500 nM·h and 2170 nM·h, respectively. Further, the concentration at 1 h in data set [8] amounted to 0.4 µM; in [10] it was 0.8 µM; in data set [5], 1.4 µM; in data set [6] it was 0.275 µM. The “Blood glucose (% of vehicle)” value in the data set on Mus musculus [1] was 91%. For the same molecule, the inhibition at 10 µM came to 9% on hERG (KCNH2) and 0.09% at PXR (NR1I2). Besides, in the data set on Mus musculus [2], the inhibition in vivo at 30 mg/kg is 39%. Also, the Activity in data set [3] was 110%; in the data set with Salmonella typhimurium, “Non-toxic”. Besides, the inhibition in vivo at 3 mg/kg in the data set on Mus musculus [9] stood at 28%. For the same molecule, the EC50 in [4] turned out to be 0.14 µM. Besides, the inhibition in vivo at 10 mg/kg in the data set with Mus musculus [11] is 30%. This molecule had a Cmax in [12] of 0.997 µM. In addition, the Tmax in [13] amounted to 4.5 h. Moreover, the outcome in the data set on Rattus norvegicus [14] was Active. For the same molecule, the inhibition in data set [15] was less than 30%.

As to `Cc1ncccc1Nc1ncnc(O[C@H]2CC3CC[C@@H](C2)N3S(=O)(=O)C2CC2)c1C` (single isomer, unassigned), the Activity in data set [3] was 110%. In addition, in data set [4], the EC50 turned out to be 2 µM.

With `Cc1ncccc1Oc1ncnc(O[C@H]2CC3CC[C@@H](C2)N3S(=O)(=O)C2CC2)c1C` (single isomer, unassigned), the “Blood glucose (% of vehicle)” value in the data set on Mus musculus [1] amounted to 87%. For the same molecule, in data set [3], the Activity was determined as 76%. Further, in data set [4], the EC50 came out at 0.063 µM. Also, in [6], the concentration at 1 h came to 2.33 µM. In addition, the AUC in the data set with Rattus norvegicus [7] came out at 879 nM·h.

In the case of `Cc1ncccc1Oc1ncnc(O[C@H]2CC3C=C[C@@H](C2)N3S(=O)(=O)C2CC2)c1C` (single isomer, unassigned), the Activity in data set [3] stood at 78%. In [4], the EC50 came to 0.24 µM.
